# Data published in patent publication US20260365670A1, “EGFR INHIBITORS AND USES THEREOF” (DIZAL (JIANGSU) PHARMACEUTICAL CO., LTD., priority 2022, published 2026).
# pIC50: −log10 of the molar value. Read-outs that look alike come from different tables or passages of the source.
# Key:
# [1] = tested on: Ba/F3 cells expressing EGFR mutations; test: Cell proliferation assay, Ba/F3 cells expressing EGFR mutations (CellTiter-Glo, 72 hours); assay type: cell-based
# Outline: (§1)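 GI50 is the concentration giving 50% proliferation inhibition. Growth for this was normalised to a baseline viability reading taken when compound was added, and to DMSO wells. PC-9 (500 cells/well) and mutant-EGFR Ba/F3 (5000 cells/well) are treated after overnight seeding in RPMI1640-based medium.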
# [2] = tested on: PC-9; test: Cell proliferation assay, PC-9 cells (CellTiter-Glo, 72 hours); assay type: cell-based; settings: PC9 cells
# Outline: as §1
# [3] = tested on: A-431; test: Cell proliferation GI50, A-431 cells (Table 6); assay type: cell-based; settings: A-431 cells
# Method: [Worded in the source for another cell line; this cell line is reported under the same test.] Ba/F3 cells expressing EGFR mutations were seeded in 384-well plates at 5000 cells/well in RPMI1640 medium containing […]. PC-9 at 500 cells/well was seeded into 384-well plates in RPMI1640 medium with 10% FBS. After overnight incubation, the assay plates were dosed with compounds at a series of concentrations. Alongside dosing the assay plates, the day 0 plate was processed using CellTiter-Glo® Luminescent Cell Viability Assay (Promega) to measure the number of viable cells (G0). The assay plates were further incubated for 72 hours and the number of viable cells (G3) was measured. The percentage of proliferation was calculated as: […]=100×(G3 value of sample well−G0 value)/(G3 value of DMSO control−G0 value). The concentration of compound producing 50% proliferation inhibition (GI50) was further calculated in best-fit curves using XLFit software. N/A=not available.
# [4] = biological target: T1, EGFR Exon19Del/T790M (Homo sapiens, UniProt P00533, DEL746-750/T790M); test: Inhibition of EGFR Exon19Del/T790M biochemical enzymatic activity (HTRF); settings: 1 mM ATP; for pIC50: EGFR Exon19Del/T790M, 1 h at room temperature, read-out: IC50 @Del19-T790M
# T1 construct: purchased Carna Bio
# Outline: (§2)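 Compounds at varying concentrations were tested against each EGFR form using 1 mM ATP and 1 μM TK Substrate-biotin. Reactions ran 1 h at room temperature in Mg2+/Mn2+ buffer with CHAPS, DTT and 0.5% DMSO. Time-resolved fluorescence gave IC50 by four-parameter fit.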
# [5] = biological target: T2, EGFR Exon19Del (Homo sapiens, UniProt P00533, DEL746-750); test: Inhibition of EGFR Exon19Del biochemical enzymatic activity (HTRF); settings: read-out: IC50 @Del19
# T2 construct: purchased Carna Bio
# Outline: as §2
# [6] = biological target: T3, EGFR L858R/T790M (Homo sapiens, UniProt P00533, L858R/T790M); test: Inhibition of EGFR L858R/T790M biochemical enzymatic activity (HTRF); settings: 1 mM ATP; for pIC50: EGFR L858R/T790M, 1 h at room temperature, read-out: IC50 @L858R-T790M
# T3 construct: purchased Carna Bio
# Outline: as §2
# [7] = biological target: T4, EGFR wild type (Homo sapiens, UniProt P00533); test: Inhibition of EGFR wild type biochemical enzymatic activity (HTRF); settings: 1 mM ATP; for pIC50: EGFR wild type, 1 h at room temperature, read-out: IC50 @WT
# T4 construct: purchased Carna Bio
# Outline: as §2
# [8] = biological target: T5, EGFR (C797S L858R) (Homo sapiens, UniProt P00533, C797S/L858R); test: Inhibition of EGFR (C797S L858R) biochemical enzymatic activity (HTRF); settings: 1 mM ATP; for pIC50: EGFR (C797S L858R), 1 h at room temperature, read-out: IC50 @L858-C797S
# T5 construct: purchased signalchem
# Outline: as §2
# [9] = biological target: T6, EGFR L858R (Homo sapiens, UniProt P00533, L858R); test: Inhibition of EGFR L858R biochemical enzymatic activity (HTRF); settings: 1 mM ATP; for pIC50: 1 h at room temperature, read-out: IC50 @L858R
# T6 construct: purchased Carna Bio
# Outline: as §2
# [10] = biological target: T7, EGFR (d746-750 C797S) (Homo sapiens, UniProt P00533, C797S/DEL746-750); test: Inhibition of EGFR (d746-750 C797S) biochemical enzymatic activity (HTRF); settings: 1 mM ATP; for pIC50: EGFR (d746-750 C797S), 1 h at room temperature, read-out: IC50 @Del19-C797S
# T7 construct: purchased signalchem
# Outline: as §2
# [11] = biological target: T8, EGFR[T790M/C797S/L858R] (Homo sapiens, UniProt P00533, C797S/L858R/T790M); test: Inhibition of EGFR[T790M/C797S/L858R] biochemical enzymatic activity (HTRF); settings: 1 mM ATP; for pIC50: EGFR[T790M/C797S/L858R], 1 h at room temperature, read-out: IC50 @T790M- C797S - L858R
# T8 construct: purchased Carna Bio
# Outline: as §2
# [12] = biological target: T9, EGFR[T790M/C797S/d746-750] (Homo sapiens, UniProt P00533, C797S/DEL746-750/T790M); test: Inhibition of EGFR[T790M/C797S/d746-750] biochemical enzymatic activity (HTRF); settings: for pIC50: EGFR[T790M/C797S/d746-750], 1 mM ATP, 1 h at room temperature, read-out: IC50 @T790M - C797S - Del19
# T9 construct: purchased Carna Bio
# Outline: as §2
# [13] = BaF3 cells, EGFR DEL19-C797S, CellTiter-Glo, read-out: DEL19-C797S/BaF3 GI50
# [14] = BaF3 cells, EGFR DEL19-T790-C797S, CellTiter-Glo, read-out: DEL19-T790-C797S/BaF3 GI50
# [15] = BaF3 cells, EGFR L858R, CellTiter-Glo, read-out: L858R/BaF3 GI50
# [16] = BaF3 cells, EGFR L858R-C797S, CellTiter-Glo, read-out: L858R-C797S/BaF3 GI50
# [17] = BaF3 cells, EGFR L858R-T790-C797S, CellTiter-Glo, read-out: L858R-T790-C797S/BaF3 GI50
# [18] = BaF3 cells, EGFR L858R-T790M, CellTiter-Glo, read-out: L858R-T790M/BaF3 GI50
# [19] = EGFR DEL19-T790M, CellTiter-Glo, read-out: DEL19-T790M GI50
# [20] = CellTiter-Glo, read-out: PC9 GI50
# [21] = EGFR Exon19Del, 1 mM ATP, 1 h at room temperature
# [22] = BaF3 cells, EGFR DEL19 - C797S, read-out: GI50 DEL19 - C797S/BaF3
# [23] = BaF3 cells, EGFR DEL19 - T790-C797S, read-out: GI50 DEL19 - T790-C797S/BaF3
# [24] = BaF3 cells, EGFR L858R - C797S, read-out: GI50 L858R - C797S/BaF3
# [25] = BaF3 cells, EGFR L858R - T790-C797S, read-out: GI50 L858R - T790-C797S/BaF3
# [26] = BaF3 cells, EGFR L858R - T790M, read-out: GI50 L858R - T790M/BaF3
# [27] = BaF3 cells, EGFR L858R, read-out: GI50 L858R/BaF3
# [28] = EGFR DEL19 - T790M, read-out: GI50 DEL19 - T790M
# T3 sequence (P00533 25-1210 T790M/L858R): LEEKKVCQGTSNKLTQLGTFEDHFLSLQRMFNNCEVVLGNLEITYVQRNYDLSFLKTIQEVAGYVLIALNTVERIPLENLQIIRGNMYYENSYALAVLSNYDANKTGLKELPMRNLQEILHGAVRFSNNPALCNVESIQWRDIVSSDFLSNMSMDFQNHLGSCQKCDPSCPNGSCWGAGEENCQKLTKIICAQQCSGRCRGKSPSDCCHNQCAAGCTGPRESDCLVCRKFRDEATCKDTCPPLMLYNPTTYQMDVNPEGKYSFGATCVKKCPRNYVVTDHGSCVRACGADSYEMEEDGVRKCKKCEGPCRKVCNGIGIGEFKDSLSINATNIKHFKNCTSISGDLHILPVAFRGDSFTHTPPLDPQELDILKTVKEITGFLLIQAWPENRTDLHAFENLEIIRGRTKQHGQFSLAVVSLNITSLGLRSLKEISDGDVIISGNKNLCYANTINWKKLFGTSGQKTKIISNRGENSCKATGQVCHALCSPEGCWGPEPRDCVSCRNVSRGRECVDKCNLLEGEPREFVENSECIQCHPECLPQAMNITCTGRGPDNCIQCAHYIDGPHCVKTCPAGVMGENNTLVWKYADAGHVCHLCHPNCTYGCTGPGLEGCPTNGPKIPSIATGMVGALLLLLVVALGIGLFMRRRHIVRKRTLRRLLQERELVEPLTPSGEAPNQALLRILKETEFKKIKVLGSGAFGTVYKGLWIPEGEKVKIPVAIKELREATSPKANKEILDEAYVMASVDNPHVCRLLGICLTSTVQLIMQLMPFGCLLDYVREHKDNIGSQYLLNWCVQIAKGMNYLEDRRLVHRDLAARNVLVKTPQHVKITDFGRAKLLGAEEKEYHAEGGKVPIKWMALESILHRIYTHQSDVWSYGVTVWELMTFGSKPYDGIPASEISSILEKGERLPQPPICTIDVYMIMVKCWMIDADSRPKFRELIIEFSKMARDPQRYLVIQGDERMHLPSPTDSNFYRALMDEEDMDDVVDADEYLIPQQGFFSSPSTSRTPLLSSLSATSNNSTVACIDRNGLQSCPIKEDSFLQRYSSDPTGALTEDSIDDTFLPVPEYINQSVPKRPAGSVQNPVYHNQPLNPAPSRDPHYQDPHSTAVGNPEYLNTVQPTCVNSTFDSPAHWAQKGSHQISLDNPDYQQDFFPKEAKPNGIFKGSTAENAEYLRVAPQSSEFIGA
# T7 sequence (P00533 with tags, fused parts or gaps DEL746-750/C797S limits assumed): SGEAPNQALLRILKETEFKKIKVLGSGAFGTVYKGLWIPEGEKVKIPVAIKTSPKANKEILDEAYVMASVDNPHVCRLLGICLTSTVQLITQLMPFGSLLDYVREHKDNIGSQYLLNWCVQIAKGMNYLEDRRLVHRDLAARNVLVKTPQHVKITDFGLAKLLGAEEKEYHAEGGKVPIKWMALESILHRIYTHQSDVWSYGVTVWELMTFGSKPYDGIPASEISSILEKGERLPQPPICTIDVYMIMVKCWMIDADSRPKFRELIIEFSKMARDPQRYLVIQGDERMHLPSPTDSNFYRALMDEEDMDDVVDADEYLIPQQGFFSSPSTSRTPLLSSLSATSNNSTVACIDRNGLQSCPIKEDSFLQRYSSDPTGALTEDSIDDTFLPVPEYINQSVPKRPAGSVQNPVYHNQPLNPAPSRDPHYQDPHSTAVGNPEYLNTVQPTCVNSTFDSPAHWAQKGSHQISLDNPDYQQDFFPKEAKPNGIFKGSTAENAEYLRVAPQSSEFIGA
# T9 sequence (P00533 with tags, fused parts or gaps DEL746-750/T790M/C797S limits assumed): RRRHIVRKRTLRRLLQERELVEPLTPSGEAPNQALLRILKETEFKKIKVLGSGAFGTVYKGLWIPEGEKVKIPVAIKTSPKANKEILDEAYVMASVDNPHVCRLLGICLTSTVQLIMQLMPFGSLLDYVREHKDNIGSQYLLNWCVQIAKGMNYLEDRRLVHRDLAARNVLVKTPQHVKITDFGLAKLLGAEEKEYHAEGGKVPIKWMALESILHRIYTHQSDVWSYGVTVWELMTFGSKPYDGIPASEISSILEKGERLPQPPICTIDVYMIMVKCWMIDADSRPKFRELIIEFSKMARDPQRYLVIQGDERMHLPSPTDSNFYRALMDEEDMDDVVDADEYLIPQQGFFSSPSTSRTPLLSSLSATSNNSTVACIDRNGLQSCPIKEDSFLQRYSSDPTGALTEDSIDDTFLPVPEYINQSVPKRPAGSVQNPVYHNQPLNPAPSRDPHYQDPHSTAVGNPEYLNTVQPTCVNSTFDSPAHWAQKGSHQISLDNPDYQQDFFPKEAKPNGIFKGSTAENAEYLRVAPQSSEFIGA
# T5 sequence (P00533 25-1210 C797S/L858R): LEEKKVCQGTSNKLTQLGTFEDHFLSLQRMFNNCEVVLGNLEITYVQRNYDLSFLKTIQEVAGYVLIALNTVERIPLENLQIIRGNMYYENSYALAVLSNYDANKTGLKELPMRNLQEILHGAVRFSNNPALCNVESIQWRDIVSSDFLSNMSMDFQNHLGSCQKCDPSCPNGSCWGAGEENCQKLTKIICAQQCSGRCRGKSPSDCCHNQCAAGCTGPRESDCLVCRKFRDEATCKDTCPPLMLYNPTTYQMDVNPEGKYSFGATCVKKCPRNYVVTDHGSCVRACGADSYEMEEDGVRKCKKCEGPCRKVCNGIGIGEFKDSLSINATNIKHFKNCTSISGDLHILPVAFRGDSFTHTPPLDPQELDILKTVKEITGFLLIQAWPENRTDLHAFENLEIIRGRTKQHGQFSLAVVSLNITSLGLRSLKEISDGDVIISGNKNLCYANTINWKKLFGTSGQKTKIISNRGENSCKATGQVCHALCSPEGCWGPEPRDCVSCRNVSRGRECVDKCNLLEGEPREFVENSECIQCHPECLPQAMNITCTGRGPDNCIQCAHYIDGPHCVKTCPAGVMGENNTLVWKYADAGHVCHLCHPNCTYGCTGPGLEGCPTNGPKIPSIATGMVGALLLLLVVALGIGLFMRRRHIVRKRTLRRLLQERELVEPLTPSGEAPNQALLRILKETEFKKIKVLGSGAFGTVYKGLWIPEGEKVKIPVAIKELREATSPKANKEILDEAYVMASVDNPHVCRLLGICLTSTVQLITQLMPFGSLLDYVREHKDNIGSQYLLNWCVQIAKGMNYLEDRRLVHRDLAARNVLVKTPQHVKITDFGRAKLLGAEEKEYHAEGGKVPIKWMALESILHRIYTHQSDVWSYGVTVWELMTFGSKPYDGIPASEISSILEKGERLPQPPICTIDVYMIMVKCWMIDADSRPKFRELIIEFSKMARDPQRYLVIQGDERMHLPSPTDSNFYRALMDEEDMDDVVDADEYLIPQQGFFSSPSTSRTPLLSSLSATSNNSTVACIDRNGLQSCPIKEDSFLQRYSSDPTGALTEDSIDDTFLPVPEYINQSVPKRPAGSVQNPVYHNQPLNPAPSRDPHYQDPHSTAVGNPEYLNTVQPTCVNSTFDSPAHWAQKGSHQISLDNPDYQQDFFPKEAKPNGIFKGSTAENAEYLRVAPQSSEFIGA
# T4 sequence (P00533 25-1210): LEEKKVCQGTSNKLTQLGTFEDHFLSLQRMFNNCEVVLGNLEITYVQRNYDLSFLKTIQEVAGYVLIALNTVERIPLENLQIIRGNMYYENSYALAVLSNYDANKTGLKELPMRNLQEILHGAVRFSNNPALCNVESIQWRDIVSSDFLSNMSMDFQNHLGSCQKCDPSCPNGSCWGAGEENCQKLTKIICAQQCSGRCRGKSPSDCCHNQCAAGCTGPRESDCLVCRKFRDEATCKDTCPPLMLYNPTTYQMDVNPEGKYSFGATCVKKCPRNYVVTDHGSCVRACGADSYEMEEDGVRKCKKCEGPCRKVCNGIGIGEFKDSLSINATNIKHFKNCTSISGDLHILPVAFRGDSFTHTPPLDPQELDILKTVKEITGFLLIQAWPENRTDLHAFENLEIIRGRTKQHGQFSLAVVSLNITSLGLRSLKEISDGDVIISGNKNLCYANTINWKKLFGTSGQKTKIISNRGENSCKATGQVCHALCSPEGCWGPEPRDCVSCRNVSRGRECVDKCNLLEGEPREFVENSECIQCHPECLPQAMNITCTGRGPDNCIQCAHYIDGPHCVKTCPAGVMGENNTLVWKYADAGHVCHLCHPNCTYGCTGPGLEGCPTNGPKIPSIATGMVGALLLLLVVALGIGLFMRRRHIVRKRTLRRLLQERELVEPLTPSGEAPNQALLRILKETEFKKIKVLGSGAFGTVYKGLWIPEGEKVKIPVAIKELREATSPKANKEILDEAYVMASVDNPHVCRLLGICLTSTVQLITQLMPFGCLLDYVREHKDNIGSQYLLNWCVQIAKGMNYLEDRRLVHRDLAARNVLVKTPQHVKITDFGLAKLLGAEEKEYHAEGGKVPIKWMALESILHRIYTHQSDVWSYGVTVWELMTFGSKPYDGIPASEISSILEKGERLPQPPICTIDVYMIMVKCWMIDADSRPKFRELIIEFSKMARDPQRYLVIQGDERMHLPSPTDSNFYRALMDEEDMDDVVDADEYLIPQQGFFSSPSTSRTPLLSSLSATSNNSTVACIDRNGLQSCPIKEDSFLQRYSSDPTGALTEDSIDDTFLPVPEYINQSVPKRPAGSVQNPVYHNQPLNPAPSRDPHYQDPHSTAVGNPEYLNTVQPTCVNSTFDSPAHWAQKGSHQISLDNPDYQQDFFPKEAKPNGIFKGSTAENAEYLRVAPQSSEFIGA
Structure (SMILES),"GI50 [1, 13] [nM]","GI50 [1, 14] [nM]","GI50 [1, 15] [nM]",pIC50 [4],"pIC50 [5, 21]",pIC50 [6],pIC50 [7],pIC50 [8],pIC50 [9],pIC50 [10],"GI50 [1, 22] [nM]","GI50 [1, 23] [nM]","GI50 [1, 24] [nM]","GI50 [1, 25] [nM]","GI50 [1, 26] [nM]","GI50 [1, 27] [nM]","GI50 [1, 28] [nM]",GI50 ([2]; read-out: GI50 PC9) [nM],pIC50 [11],pIC50 [12],other results
"CCN1CCN(c2ccc3nc4n(c3c2)C23CCC(CN(CCOc5c(cnn5C)-c5cc(cc(C)n5)C(=O)N4)C2)C3)CC1 (single isomer, unassigned) [Example B56A]",,,,5.88,5.50,< 5.30,< 5.30,< 5.30,< 5.30,5.62,82,145,417,58,80,1030,230,443,< 5.30,6.44,
"Cc1cc2cc(n1)-c1cnn(C)c1OCCN1CC3CCC(C3)(C1)n1c(nc3ccc(N4CCC(N5CCN(C)CC5)CC4)cc31)NC2=O (single isomer, unassigned) [Example B59A]",,,,5.94,< 5.30,< 5.30,< 5.30,< 5.30,< 5.30,< 5.30,227,474,751,144,299,1130,788,930,< 5.30,6.29,

# Now from value to compound, other results behind:
"GI50 [1, 13] [nM]","GI50 [1, 14] [nM]","GI50 [1, 15] [nM]",pIC50 [4],"pIC50 [5, 21]",pIC50 [6],pIC50 [7],pIC50 [8],pIC50 [9],pIC50 [10],"GI50 [1, 22] [nM]","GI50 [1, 23] [nM]","GI50 [1, 24] [nM]","GI50 [1, 25] [nM]","GI50 [1, 26] [nM]","GI50 [1, 27] [nM]","GI50 [1, 28] [nM]",GI50 ([2]; read-out: GI50 PC9) [nM],pIC50 [11],pIC50 [12],Structure (SMILES),other results
936,2960,754,,,,,,,,,,,,,,,,,,"Cn1ncc2c1OCCN1CC3CCC(C3)(C1)n1c(nc3ccc(N4CCC(N5CC(F)C5)C4)cc31)NC(=O)c1cc-2c(=O)n(C)c1 (single isomer, unassigned) [Example A94A1, 5-[3-(3-Fluoroazetidin-1-yl)pyrrolidin-1-yl]-15,21-dimethyl-23-oxa-2,9,11,15,20,21,26-heptaazaheptacyclo[24.4.1.1^{1,28}.1^{13,17}.0^{2,10}.0^{3,8}.0^{18,22}]tritriaconta-3,5,7,9,13,17(33),18(22),19-octaene-12,16-dione]","GI50 [1, 16]: 1800 nM; GI50 [1, 17]: 882 nM; GI50 [1, 18]: 2650 nM; GI50 [1, 19]: 2030 nM; GI50 [2, 20]: 2330 nM; GI50 [3]: 3540 nM"
,,,5.44,< 5.30,< 5.30,< 5.30,< 5.30,< 5.30,< 5.30,302,436,776,39,315,2790,348,2300,< 5.30,5.89,"Cc1cc2cc(n1)-c1cnn(C)c1OCCN1CC3CCC(C3)(C1)n1c(nc3ccc(N4CC[C@H](N(C)C)C4)cc31)NC2=O (single isomer, unassigned) [Example B41A]",
95,340,47,,,,,,,,,,,,,,,,,,"CN1C2CC1CN(c1ccc3nc4n(c3c1)C13CCC(CN(CCOc5c(cnn5C)-c5cc(cn(C)c5=O)C(=O)N4)C1)C3)C2 (single isomer, unassigned) [Example A98A]","IC50 ([4]; EGFR Del19-T790M, 1 h, room temperature, read-out: IC50 (nM) @Del19-T790M): 3410 nM; pIC50 ([5]; EGFR Del19, 1 mM ATP, 1 h, room temperature): 6.63; IC50 ([6]; EGFR L858R-T790M, 1 h, room temperature, read-out: IC50 (nM) @L858R-T790M): > 5000 nM; IC50 ([7]; EGFR WT, 1 h, room temperature, read-out: IC50 (nM) @WT): > 5000 nM; IC50 ([8]; EGFR L858-C797S, 1 h, room temperature, read-out: IC50 (nM) @L858-C797S): 3370 nM; IC50 ([9]; 1 h, room temperature, read-out: IC50 (nM) @L858R): 1270 nM; IC50 ([10]; EGFR Del19-C797S, 1 h, room temperature, read-out: IC50 (nM) @Del19-C797S): 391 nM; GI50 [1, 16]: 173 nM; GI50 [1, 17]: 49 nM; GI50 [1, 18]: 343 nM; GI50 [1, 19]: 171 nM; GI50 [2, 20]: 297 nM; IC50 ([11]; EGFR T790M-C797S-L858R, 1 h, room temperature, read-out: IC50 (nM) @T790M- C797S - L858R): > 5000 nM; IC50 ([12]; EGFR T790M-C797S-Del19, 1 mM ATP, 1 h, room temperature, read-out: IC50 (nM) @T790M - C797S - Del19): 2080 nM"
